7 molecules from US4276375A, “Determination of serine proteases” (AB Kabi, priority 1976, dated 1981) can be followed below.

Structures can show the parent of a compound that is named as a salt. Residues, ends and D or L forms follow the SMILES beside them. *: point of attachment. pNA = O=[N+]([O-])c1ccc(N*)cc1; Piperidide = C1CCN(*)CC1; Bz = O=C(c1ccccc1)*; NHiPr = CC(C)N*; OiPr = CC(C)O*

Common to all, as to assay type: biochemical
Data set [1] has as its target T1, factor Xa (Bos taurus, UniProt P00743).
T1 construct: purchased Diagnostic Reagents (product 'Diagen', 6.4 Denson U)
Kind of data set: Relative activity (rate of substrate hydrolysis, Δ OD/min at 405 nm). Conditions: S-2222 = 100, 250 μl of 2 mmole/l substrate in 2500 μl, Tris buffer pH 8.3, 37° C. On the procedure:
(§1) Buffer Tris (tris(hydroxymethyl)aminomethane)
(§2) 0.05 mole/l, pH = 8.3, I = 0.25 (NaCl)
(§3) Enzyme Diagen (6.4 Denson U) (Diagnostic Reagents)
(§4) . 1 ampule is dissolved in 2 ml of water.
(§5) The substrate is dissolved in water to 2 mmole/l.
Substrate, +37° C.250 μl
(§6) Mix and read change of absorbance (Δ OD/min) at […]

Data set [2] deals with T1, factor Xa. Kind of data set: Determination of Km and Vmax (Lineweaver-Burk, hydrolysis of chromogenic substrate read at 405 nm). Conditions: value is Vmax multiplied by 10^8; Tris buffer pH 8.3, I 0.25, 37° C., enzyme Diagen. As for the experimental part: (§7) Km and Vmax are obtained by means of the Lineweaver-Burk equation: [formula] Enzyme and substrate are mixed in a buffer solution and the rate of hydrolysis is measured spectrophotometrically. The substrate concentration (So) is varied while the enyzme concentration is kept constant. The reciprocal velocity l/vo is then plotted against the reciprocal substrate concentration l/So, and Km and Vmax are estimated (Table 1) from the obtained Lineweaver-Burk diagram.
as §1, §2, §3, §4, §5, §6

Substrate in data set [3]: CC[C@H](C)[C@H](NC(=O)c1ccccc1)C(=O)N[C@@H](CCC(=O)N1CCCCC1)C(=O)NCC(=O)N[C@@H](CCCNC(=N)N)C(=O)Nc1ccc([N+](=O)[O-])cc1
Described as above. Conditions: other: value is Km multiplied by 10^4, Tris buffer 0.05 mole/l, pH 8.3, I 0.25 (NaCl), 37° C., enzyme Diagen, 37.0 °C. On the procedure:
as §7, §1, §2, §3, §4, §5, §6

Substrate in data set [4]: CC[C@H](C)[C@H](NC(=O)c1ccccc1)C(=O)N[C@@H](CCC(=O)O)C(=O)NCC(=O)N[C@@H](CCCN=C(N)N)C(=O)Nc1ccc([N+](=O)[O-])cc1
The data set is described as above. The conditions noted are these: other: stated in the text; pH 8.3. As for the experimental part:
as §7, §1, §2, §3, §4, §5, §6

Substrate in data set [5]: CCOC(=O)CC[C@H](NC(=O)[C@@H](NC(=O)c1ccccc1)[C@@H](C)CC)C(=O)NCC(=O)N[C@@H](CCCNC(=N)N)C(=O)Nc1ccc([N+](=O)[O-])cc1
Described as above. The conditions noted are these: other: value is Km multiplied by 10^4, Tris buffer 0.05 mole/l, pH 8.3, I 0.25 (NaCl), 37° C., enzyme Diagen, 37.0 °C. As for the experimental part: as §7, §1, §2, §3, §4, §5, §6

Substrate in data set [6]: CC[C@H](C)[C@H](NC(=O)c1ccccc1)C(=O)N[C@@H](CCC(=O)NC(C)C)C(=O)NCC(=O)N[C@@H](CCCNC(=N)N)C(=O)Nc1ccc([N+](=O)[O-])cc1
The data set is described as above. The conditions noted are these: other: value is Km multiplied by 10^4, Tris buffer 0.05 mole/l, pH 8.3, I 0.25 (NaCl), 37° C., enzyme Diagen, 37.0 °C. On the procedure: as §7, §1, §2, §3, §4, §5, §6

Substrate in data set [7]: CC[C@H](C)[C@H](NC(=O)c1ccccc1)C(=O)N[C@@H](CCC(=O)OC)C(=O)NCC(=O)N[C@@H](CCCNC(=N)N)C(=O)Nc1ccc([N+](=O)[O-])cc1
Described as above. The conditions noted are these: other: value is Km multiplied by 10^4, Tris buffer 0.05 mole/l, pH 8.3, I 0.25 (NaCl), 37° C., enzyme Diagen, 37.0 °C. As for the experimental part:
as §7, §1, §2, §3, §4, §5, §6

Substrate in data set [8]: CC[C@H](C)[C@H](NC(=O)c1ccccc1)C(=O)N[C@@H](CCC(=O)OC(C)C)C(=O)NCC(=O)N[C@@H](CCCNC(=N)N)C(=O)Nc1ccc([N+](=O)[O-])cc1
Described as above. Conditions: other: value is Km multiplied by 10^4, Tris buffer 0.05 mole/l, pH 8.3, I 0.25 (NaCl), 37° C., enzyme Diagen, 37.0 °C. As for the experimental part: as §7, §1, §2, §3, §4, §5, §6

In data set [1], `CCOC(=O)CC[C@H](NC(=O)[C@@H](NC(=O)c1ccccc1)[C@@H](C)CC)C(=O)NCC(=O)N[C@@H](CCCNC(=N)N)C(=O)Nc1ccc([N+](=O)[O-])cc1` [Ex. 2, Bz-Ile-Glu(OEt)-Gly-Arg-pNA.HCl] (Bz-IE(OEt)GR-pNA) came in with a Relative activity of 200. For the same molecule, the “Vmax · 10^8” value in data set [2] was 7.5 mol/min · U.
Taken in the same sequence, the figures for `CC[C@H](C)[C@H](NC(=O)c1ccccc1)C(=O)N[C@@H](CCC(=O)OC)C(=O)NCC(=O)N[C@@H](CCCNC(=N)N)C(=O)Nc1ccc([N+](=O)[O-])cc1` [Ex. 1, Bz-Ile-Glu(OMe)-Gly-Arg-pNA.HCl] (Bz-IE(OMe)GR-pNA) were 230 and 8.1 mol/min · U.
Taken in the same sequence, the figures for `CC[C@H](C)[C@H](NC(=O)c1ccccc1)C(=O)N[C@@H](CCC(=O)O)C(=O)NCC(=O)N[C@@H](CCCNC(=N)N)C(=O)Nc1ccc([N+](=O)[O-])cc1` [Example S-2222, Benzoyl-Ile-Glu-Gly-Arg-p-nitroanilide, reference compound] (Bz-IEGR-pNA) were 100 and 8.6 mol/min · U.
Taken in the same sequence, the figures for `CC[C@H](C)[C@H](NC(=O)c1ccccc1)C(=O)N[C@@H](CCC(=O)N1CCCCC1)C(=O)NCC(=O)N[C@@H](CCCNC(=N)N)C(=O)Nc1ccc([N+](=O)[O-])cc1` [Ex. 7] (Bz-IE(Piperidide)GR-pNA) were 300 and 8.6 mol/min · U.
`CC[C@H](C)[C@H](NC(=O)c1ccccc1)C(=O)N[C@@H](CCC(=O)NC(C)C)C(=O)NCC(=O)N[C@@H](CCCNC(=N)N)C(=O)Nc1ccc([N+](=O)[O-])cc1` [Ex. 6] (Bz-IE(NHiPr)GR-pNA): the Relative activity in data set [1] is given as 340. For the same molecule, the “Vmax · 10^8” value in data set [2] came to 20.0 mol/min · U.
For `CC[C@H](C)[C@H](NC(=O)c1ccccc1)C(=O)N[C@@H](CCC(=O)OC(C)C)C(=O)NCC(=O)N[C@@H](CCCNC(=N)N)C(=O)Nc1ccc([N+](=O)[O-])cc1` [Ex. 3, Bz-Ile-Glu(OisoPr)-Gly-Arg-pNA.HCl] (Bz-IE(OiPr)GR-pNA), in that order: 220 and 7.1 mol/min · U.

B1: factor Xa (Bos taurus) (protein)
chain 1: IVGGRDCAEGECPWQALLVNEENEGFCGGTILNEFYVLTAAHCLHQAKRFTVRVGDRNTEQEEGNEMAHEVEMTVKHSRFVKETYDFDIAVLRLKTPIRFRRNVAPACLPEKDWAEATLMTQKTGIVSGFGRTHEKGRLSSTLKMLEVPYVDRSTCKLSSSFTITPNMFCAGYDTQPEDACQGDSGGPHVTRFKDTYFVTGIVSWGEGCARKGKFGVYTKVSNFLKWIDKIMKARAGAAGSRGHSEAPATWTVPPPLPL
chain 2: ANSFLEEVKQGNLERECLEEACSLEEAREVFEDAEQTDEFWSKYKDGDQCEGHPCLNQGHCKDGIGDYTCTCAEGFEGKNCEFSTREICSLDNGGCDQFCREERSEVRCSCAHGYVLGDDSKSCVSTERFPCGKFTQGRS
notes: purchased Diagnostic Reagents (product 'Diagen', 6.4 Denson U)
Usually Km stands for the concentration of substrate that gives half-maximal velocity. With B1, the Km worked out at 170 µM in data set [3]; 830 µM in data set [4]; 290 µM in data set [5]; 560 µM in data set [6]; 260 µM in data set [7]; 210 µM in data set [8].
